The values below come from a melting point compilation (Tetko et al.; mined from patent text by program, amines drawn as free bases though some values may be those of a salt).

As a reminder, the melting point is the temperature, or range, at which the solid turns liquid. The molecule `O=C(Cl)c1cc(OCc2ccccc2)cc([N+](=O)[O-])c1` came in with a melting point of 84 to 85 °C.

Molecule `O=C(Nc1ccc(C(F)(F)F)cc1)Nc1nc(Cl)cc(Cl)n1` registered a melting point of 99 to 101 °C. `COc1cc2c(=O)c(C)cn3c4cc(Br)ccc4c(c1)c23` showed a melting point of 201 to 204 °C. `COC(=O)c1ccc([N+](=O)[O-])cc1-n1c(CCl)nc2ccccc2c1=O` had a melting point of 158 to 159 °C. In turn, `Oc1cccc(CCN2CCCC2)c1` yielded a melting point of 99 to 102 °C. Turning to `CCCCC(=O)C1(Nc2ccccc2)CCN(CCc2ccccc2)CC1`, the melting point came to 71.3 °C.

For `CN(Cc1ccc(NC(=O)C2=Cc3cc(-c4ccc(OCC(=O)OC(C)(C)C)cc4)ccc3S(=O)(=O)CC2)cc1)C1CCOCC1`, the melting point lay within 209 to 211 °C.

`O=C(O)CN1CC(NC(=O)Cc2ccccc2)C1=O` (stereo not given) had a melting point of 144 to 145 °C. For the molecule `COC(=O)CCc1cc2cc(Cl)ccc2n1S(=O)(=O)c1ccc2ncsc2c1`, the melting point was in the range of 134 to 138 °C. Next, `CC(C)(C(=O)O)c1ccc2oc(-c3ccccc3)nc2c1`: 92 to 95 °C.

With `O=C(Nc1cccc(F)c1)NC1CCN(S(=O)(=O)c2ccc(Cl)cc2)CC1`, the melting point lay within 245 to 248 °C. Next, `CCOC(=O)c1c(CS(=O)(=O)c2nc3ccccc3[nH]2)nc2cc(OC)c(OC)cc2c1-c1ccc(OC)c(OC)c1`: 181 to 182 °C.

The molecule `Cc1cnc2c(c1-c1ccccc1)C(=O)N(Cc1cc(C(F)(F)F)cc(C(F)(F)F)c1)CCN(C)C2=O` gave a melting point of 203 to 205 °C. In the case of `Cn1cc(-c2ccccc2)c(=O)c(-c2cccc(I)c2)c1`, the melting point was 190 to 193 °C.

Consider `CC(=O)Nc1c([N+](=O)[O-])cc(F)c(F)c1F`, for which the melting point was in the range of 96 to 97 °C.

`CCOCc1nc2c(N)nc3cccnc3c2n1CC(C)(C)NC(=O)C1CCCCC1` displayed a melting point of 210 to 211 °C.

As to `CC(C)Sc1ccoc1C(=O)Nc1nnn[nH]1`, the melting point fell in the range of 201 to 203 °C. Next, `Cc1cc(C(=O)N2CCC3(CC2)CSC2=C(O3)c3ccccc3C(=O)C2=O)c(C)o1`: 234 to 235 °C; `CCCC[C@]1(CC)CS(=O)(=O)c2cc3c(cc2[C@@H](c2ccccc2)N1)OCO3`: 71 to 73 °C; `CC(C)(C)c1cc(CCc2ccccc2NC(=O)NC2CCN(CCc3ccccc3)CC2)cc(C(C)(C)C)c1O`: 175 to 176 °C. On to `CC1=C(C(=O)OCc2ccccc2)C(c2cccc([N+](=O)[O-])c2)c2c(ccnc2OC(C)C)N1` (stereo not given), for which the melting point fell in the range of 158 to 160 °C.

`CCCCOc1ccc(C(C)N(O)C(N)=O)cc1` (stereo not given): the melting point lay in the range of 137 to 138 °C.

`N#Cc1c(C(F)(F)F)oc2cc(O)ccc2c1=O`: the melting point was 255 to 257 °C. `CN1CCN(C)c2nc(c3ccccc3n2)NCC2CCCC(CNc3nc1nc1ccccc31)C2` had a melting point of 284 to 285 °C. Next, `COc1ccc(-c2cc3ccccc3[nH]2)cc1NC(=S)Nc1cc(Cl)cc(Cl)c1`: 199 to 201 °C; `CCS(=O)(=O)C(F)(F)c1nnc(OCC(=O)N(C)c2ccccc2)s1`: 103 to 104 °C. To `CC(C)=CCCC(C)=CCOc1ccc(C(=O)NCCc2ccccn2)cc1` belongs 67 to 69 °C; to `COC(=O)C1Oc2ccc([N+](=O)[O-])cc2O1` (stereo not given), 90 to 92 °C. For the molecule `CCOc1cccc(C(c2ncccc2OC)n2nc(C(=O)O)c3c2-c2ccc(OCc4cncnc4)cc2CC3)c1` (stereo not given), the melting point was in the range of 222 to 225 °C. Turning to `CC(=O)Nc1cc2c3c(c1)c(=O)c(C(=O)O)cn3C(C)CC2` (stereo not given), the melting point was over 310 °C. `COC(=O)c1cc(OCc2ccccc2)nn1-c1ccccc1` gave a melting point of 53 to 54 °C. To `CCOC(=O)C1=C(C)N(Cc2ccccc2[N+](=O)[O-])C2=C(C(=O)OC2)C1c1ccccc1C(F)(F)F` (stereo not given) belongs 233 °C. As to `Cc1[nH]n(Cc2cccc(C(N)=O)c2)c2nc(-c3ccncc3)nc(=O)c1-2`, the melting point was over 300 °C. The molecule `Cc1cc(Nc2ccc(C(C)(C)C)cc2)c2[nH]ncc2n1` gave a melting point of 258 to 262 °C.

Consider `CC(=O)c1ccc(-c2ccc(S(C)(=O)=O)cc2)o1`, for which the melting point is 160 to 164 °C.

`O=C1N(c2cc(Cl)cc(Cl)c2)C(=O)C2(Cc3ccc(Br)cc3)CCC(c3ccccc3)N12` (stereo not given) had a melting point of 72.4 °C. To `CCCCCCCCCCCSCCCN=C=O` belongs 91 to 93 °C; to `NC(=O)Cc1cccc(Cn2ccc(OCc3ccc(F)cc3F)c(Br)c2=O)c1`, 164 to 167 °C. The molecule `O=C(O)c1ccccc1C(=O)NCCc1cccnc1` displayed a melting point of 183 to 185 °C. For `Cc1cn2c(n1)C(=O)CCC2`, the melting point is 147 to 149 °C. For the molecule `CCCC(C1CCCCC1)n1c(C(=O)OC)cnc1S` (stereo not given), the melting point came to 181 °C. As to `CCCn1cncc1CSc1nc2ccc([N+](=O)[O-])cc2[nH]1`, the melting point was 189 to 190 °C. Turning to `CN1CNC(=S)N(c2ccc(N(C)C)cc2)C1`, the melting point lay within 173 to 175 °C. Molecule `N#CSc1nc(Cl)ncc1Cl` showed a melting point of 160 to 162 °C.

`CS(=O)(=O)c1ccc(Oc2cc(OCc3ccccc3)c3[nH]c(C4=NCC(CC(N)=O)S4)cc3c2)cc1` (stereo not given) yielded a melting point of 134 to 135 °C. As to `Cc1cc(OC(F)F)ccc1C(=O)O`, the melting point was 117 to 119 °C. In turn, `O=c1ccsn1Cc1ccccc1` had a melting point of 78 to 80 °C. `CC(C)(C)OC(=O)N1CCC2(CC1)NC(c1nc(-c3ccccc3)c[nH]1)Cc1c2[nH]c2ccccc12` (stereo not given) showed a melting point of 118 to 120 °C. In turn, `O=C1c2ccccc2C(=O)N1CCCCOc1ccc([N+](=O)[O-])cc1` gave a melting point of 112 to 114 °C. Next, `CC(=O)c1csc(S(N)(=O)=O)c1`: 170 to 172 °C; `CCS(=O)(=O)Nc1cccc(C)c1C(N)c1cccn2c(C)c(C)nc12` (stereo not given): 240 to 242 °C; `C#CCCCCNC(=O)c1cnc(OCC(O)CNC(C)(C)C)s1` (stereo not given): 140 to 148 °C. To `CCOc1cccc(-c2cnn3c(-c4cccc(NC(=O)CC(C)C)c4)ccnc23)c1` belongs 156 to 158 °C; to `CNC(=O)CCCSc1nccc(NC(N)=NCC(F)(F)F)n1`, 153 to 155 °C; to `Cc1cc(C2CCC(c3ccc(O)cc3)CC2)ccc1O` (stereo not given), 214 °C. Take `COc1ccc(CNc2nc(CCC(=O)O)nc3sc(Cl)cc23)cc1Cl`: the melting point came out at 126 °C.

`C/C(=C\c1ccc(CO)cc1)c1ccc2c(c1)C(C)(C)C(O)CC2(C)C` (stereo not given) yielded a melting point of 182 to 183 °C.

With `CCc1nn(C2CCCC2)c2cc(C(=O)O)ccc12`, the melting point lay in the range of 153 to 155 °C. For `Cc1cc(NC(=O)c2ccc(C(=O)N3CCN(c4ncccc4NC(C)C)CC3)nc2)n[nH]1`, the melting point was in the range of 116 to 117 °C. Molecule `CC(=O)N1c2ccccc2C=Cc2ccccc21` had a melting point of 121 °C. As for `CCN1CNC(=O)NC1=O`, the melting point fell in the range of 220 to 224 °C.

The molecule `CCCC1(C(=O)O)CCCCC1` gave a melting point of 58 to 59 °C. In turn, `CN(C)S(=O)(=O)c1cc(-c2csc(=Nc3ccc4c(c3)OCCO4)n2C)ccc1Cl` showed a melting point of 200 to 203 °C. Next, `CC(=O)OC(c1ccccc1F)c1scnc1C` (stereo not given): 53 to 56 °C; `NC(=O)N(O)Cc1ccc(Br)s1`: 145 to 147 °C; `Cc1c(Cl)cc(C(C)(C)C)c(O)c1-c1nc2ccc(F)cc2c(=O)[nH]1`: 224 to 225 °C. The molecule `CCCCc1nc(C(O)c2ccccc2)c(C(=O)O)n1Cc1ccc(-c2ccccc2C(=O)O)cc1` (stereo not given) gave a melting point of 192 to 194 °C.

Molecule `Nc1nc2c(c(Nc3ccc(F)c(Cl)c3)n1)-c1ccccc1C2` displayed a melting point of 232 to 233 °C.

Regarding `CC(C)(C)OC(=O)C=Cc1ccc(O)cc1C=NO`, the melting point lay in the range of 146 to 149 °C.

`COc1ccc(C2CC(=O)N(C(=O)c3cncc(Br)c3)N2C)cc1OC1CCCC1` (stereo not given) yielded a melting point of 139 to 141 °C. Regarding `Nc1c(N=O)c(=O)n(CC2CCCC2)c(=O)n1CC1CCCC1`, the melting point lay in the range of 254 to 255 °C.

In turn, `CCc1nc2c(N)nc3ccccc3c2n1CCCCS(=O)(=O)NCc1ccc(OC)cc1` yielded a melting point of 176 to 177 °C. The molecule `CCCCn1c(C)nc(SC)nc1=O` returned a melting point of 62 to 63 °C. Consider `Cc1ccc2c(c1)c(O)c(C(=O)NC1CCCCC1)c(=O)n2Cc1ccccc1`, for which the melting point stood at 87 °C. `Cc1cc(CCCOc2c(C)cc(C(=O)O)cc2C)on1` came in with a melting point of 156 to 157 °C. The molecule `COC(=O)c1cscc1NC(=O)COc1ccc(-c2ccccc2)cc1` gave a melting point of 132 to 135 °C. Next, `COc1ccc(C(=O)N2CC[C@@H](O)C2=O)cc1`: 121 to 122 °C.

Molecule `COC(=O)c1nc(Cl)c(F)c(N)c1/C=C/Cl` gave a melting point of 128 to 130 °C.

`CCOC(=O)C1N=C(c2ccccc2)c2cc(Cl)ccc2N(C)C1=O` (stereo not given) showed a melting point of 180 °C. Molecule `NC(=O)c1ccc(CCn2ccn(C3CCc4ccccc4C3)c2=S)cc1` (stereo not given) yielded a melting point of 158 to 160 °C. In the case of `OC1(C#Cc2cccc(Cl)c2)CCCNC1` (stereo not given), the melting point is 113 to 114 °C. As to `CCCc1nc2c(N)nc3cccnc3c2n1CCCCS(=O)(=O)N(C)C`, the melting point is 162 to 163 °C.

`CC(=O)c1ccc2c(c1)ncn2-c1cccc(C(=NOC(C)C)OC2CCCN(C)C2)c1` (stereo not given): the melting point was in the range of 104 to 106 °C. Regarding `O=C(Nc1ccc([C@@H]2[C@H]3COC(=O)[C@H]32)c(F)c1)OCc1ccccc1`, the melting point was 141 to 142 °C. Molecule `CCC(C)N(C)C(=O)c1cc(-c2ccccc2Cl)c2sccc2c1` (stereo not given) gave a melting point of 98 °C. In turn, `CC(c1ccc(F)c(Br)c1)N(O)C(N)=O` (stereo not given) came in with a melting point of 125 °C. As to `CCn1nc(OCC(=O)C(C)(C)C)c(-c2ccc(F)cc2)c1-c1ccc(S(N)(=O)=O)cc1`, the melting point was in the range of 196 to 198 °C. In turn, `O=C1NC(=O)C(Cc2c[nH]c3ccc(Cl)cc23)N1` (stereo not given) yielded a melting point of 226 to 228 °C.

For `CNC(=O)c1cc(-c2ccc(OC)cc2)nn(CC2CCCC2)c1=O`, the melting point lay within 107 to 108 °C. Molecule `COc1cc(Nc2c(C#N)cnc3cc(Br)sc23)c(Cl)cc1Cl` came in with a melting point of 228 to 229 °C.
